Measured values reported in patent publication US11272841B2, “Indicator fluids, systems, and methods for assessing movement of substances within, to or from a cerebrospinal fluid, brain or spinal cord compartment of a cranio-spinal cavity of a human” (BRAINWIDESOLUTIONS AS, priority 2017, dated 2022).
Marks after values point to notes of the source that are not given here.

Experiment: Repeated standardized T1-weighted MRI: signal units (SU) in ROIs of CSF, venous space and brain tissue after intrathecal gadobutrol, iNPH versus reference patients (Tables 2-4, FIG. 14b, 16)
Type: in vivo, human
Protocol: The different features of Aspect 2 are based on novel in-vivo observations in humans. […] In the following paragraphs, these novel observations in humans are commented on in more detail. In these studies, the MRI contrast agent gadobutrol served as indicator fluid and MRI SUs were indication signals. MRI T1 weighted signal units were measured when gadobutrol was present within CSF after having been administered to the CSF compartment, and were compared with MR images having identical sequence parameter settings and with no gadobutrol present in CSF. […] With a MW of 605 Da, gadobutrol is a rather large molecule in comparison to the MW of water (H2O) molecule, which is 18 Da. Clearance of gadobutrol is then indicative of clearance of other substances with similar properties.
We explored both movement of the contrast agent within, to, and from the cranio-spinal cavity, including CSF, brain and spinal cord compartment, and from the cranio-spinal cavity to extra-cranial LNs. With gadobutrol present within CSF, blood level concentrations of contrast agents were determined at various time point. The repeated MRI acquisitions made it possible to create clearance curves for one or more pixels, defined by ROIs. ROIs were placed within CSF compartments, brain and spinal cord tissue compartments, and extracranial LN tissue compartments. By means of MRI, we could create graphic curves illustrating clearance of substances (clearance illustrating curves) for defined ROIs built up of a defied number of pixels for each individual. For details of said clearance curves, see FIG. 7. The establishment of clearance curves was dependent on repeated MRI acquisitions over a long period.
Using MRI SUs, we created clearance illustrating curves, see FIG. 7, for the individual patients as well as for groups of individuals. Tables 2-4 illustrate various examples of parameter values of the clearance illustrating curves.
Table 2, as discussed with FIG. 2, illustrates how maximum increase in SUs varies between individuals and patient groups. Tables 3 and 4 compare such clearance curve parameters from two patient groups, namely iNPH and reference (i.e. control) patients, illustrating inter-individual differences and differences between patient groups. These patient groups represent no limitation of the invention as it may be used in various patient groups such as Alzheimer's and dementia in general, brain tumor (e.g. astrocytoma), multiple sclerosis and inflammatory brain disease, stroke (brain infarction or bleeds), sleep disturbances, neurodegenerative disease, CSF circulation disorders, traumatic brain injury, neurometabolic diseases, glaucoma, chronic headache and migraine, and in assessment of ageing in general.
Even though perfect match of ROIs of repeated images may be difficult to obtain, the second aspect of the invention is facilitated by that image acquisition parameters at repeated MRI acquisitions are kept fixed and thus standardized. […] Further, to make best possible alignments of pixels, methods for alignment of repeated MRI acquisitions need to be implemented. Methods for alignment of repeated MRI images belong to prior art. Aids to improve alignment may incorporate landmark locations such as the cranial vault, pineal gland, and ventricular system.
Each image acquisition lasted 6 minutes and 29 seconds.

[1] = Brain parenchyma: Frontal horn, Reference
[2] = Brain parenchyma: Frontal horn, iNPH
[3] = Brain parenchyma: Inferior frontal gyrus (IFG), Reference
[4] = Brain parenchyma: Inferior frontal gyrus (IFG), iNPH
[5] = Brain parenchyma: Pons, Reference
[6] = Brain parenchyma: Precentral gyrus, Reference
[7] = Brain parenchyma: Precentral gyrus, iNPH
[8] = Brain parenchyma: Thalamus, Reference
[9] = Brain parenchyma: Thalamus, iNPH
[10] = CSF space: 3rd Ventricle, Reference
[11] = CSF space: 4th Ventricle, Reference
[12] = CSF space: Foramen Magnum, Reference
[13] = CSF space: Foramen Magnum, iNPH
[14] = CSF space: Lateral Ventricle, Reference

In the case of `O=C([O-])CN1CCN(CC(=O)[O-])CCN([C@H](CO)[C@H](O)CO)CCN(CC(=O)[O-])CC1.[Gd+3]` (racemic) [gadobutrol], the “Enhancement coefficient (SU/min)” value [1] is reported as 0.05 SU/min, the “Max increase (SU)” value [1] is reported as 7.9 ± 7.9 SU and the “Time to peak” value [1] is reported as 1109.8 ± 585.6 min. For the same compound, the “Enhancement coefficient (SU/min)” value [2] was 0.04 SU/min, the “Max increase (SU)” value [2] was 48.5 ± 32.8^b SU and the “Time to peak” value [2] was 1349.3 ± 350.9 min. For the same compound, the “Enhancement coefficient (SU/min)” value [3] was 0.02 SU/min, the “Max increase (SU)” value [3] was 23.8 ± 20.9 SU and the “Time to peak” value [3] was 1421.3 ± 53.1 min. The “Enhancement coefficient (SU/min)” value [4] was 0.03 SU/min, the “Max increase (SU)” value [4] was 39.1 ± 25.3 SU and the “Time to peak” value [4] was 1358.0 min. For the same compound, the “Enhancement coefficient (SU/min)” value [5] was 0.08 SU/min, the “Time to peak” value [5] was 929.4 ± 676.9 min and the “Enhancement coefficient (SU/min)” value (Brain parenchyma: Pons, iNPH) was 0.03 SU/min. For the same compound, the “Time to peak” value (Brain parenchyma: Pons, iNPH) was 1090.0 ± 602.3 min, the “Enhancement coefficient (SU/min)” value [6] was 0.03 SU/min and the “Max increase (SU)” value [6] was 7.8 ± 11.2 SU. For the same compound, the “Time to peak” value [6] was 742.8 ± 727.9 min, the “Enhancement coefficient (SU/min)” value [7] was 0.04 SU/min and the “Max increase (SU)” value [7] was 9.0 ± 8.3 SU. The “Time to peak” value [7] was 900.0 ± 686.4 min, the “Enhancement coefficient (SU/min)” value [8] was 0.01 SU/min and the “Max increase (SU)” value [8] was 9.0 ± 7.1 SU. The “Time to peak” value [8] was 1288.4 ± 386.3 min, the “Enhancement coefficient (SU/min)” value [9] was 0.01 SU/min and the “Max increase (SU)” value [9] was 13.0 ± 6.8 SU. For the same compound, the “Time to peak” value [9] was 1261.7 ± 462.6 min, the “Clearance coefficient (SU/min)” value [10] was −0.09 ± 0.08 SU/min and the “Clearance time” value [10] was 1135.3 ± 74.2 min. The “Enhancement coefficient (SU/min)” value [10] was 0.4 SU/min, the “Max increase (SU)” value [10] was 115.1 ± 103.8 SU and the “Max reduction (SU)” value [10] was −103.7 ± 83.9 SU. For the same compound, the “Time to peak” value [10] was 253.8 ± 133.2 min, the “Clearance coefficient (SU/min)” value (CSF space: 3rd Ventricle, iNPH) was −0.10 ± 0.07 SU/min and the “Clearance time” value (CSF space: 3rd Ventricle, iNPH) was 1234.3 ± 116.2 min. For the same compound, the “Enhancement coefficient (SU/min)” value (CSF space: 3rd Ventricle, iNPH) was 1.4 SU/min, the “Max increase (SU)” value (CSF space: 3rd Ventricle, iNPH) was 243.6 ± 136.9^a SU and the “Max reduction (SU)” value (CSF space: 3rd Ventricle, iNPH) was −114.4 ± 76.8 SU. For the same compound, the “Time to peak” value (CSF space: 3rd Ventricle, iNPH) was 615.3 ± 587.5 min, the “Clearance coefficient (SU/min)” value [11] was −0.18 ± 0.08 SU/min and the “Clearance time” value [11] was 1287.6 ± 105.9 min. The “Enhancement coefficient (SU/min)” value [11] was 6.3 SU/min, the “Max increase (SU)” value [11] was 236.0 ± 142.9 SU and the “Max reduction (SU)” value [11] was −232.6 ± 103.7 SU. The “Time to peak” value [11] was 123.4 ± 98.1 min, the “Clearance coefficient (SU/min)” value (CSF space: 4th Ventricle, iNPH) was −0.19 ± 0.1 SU/min and the “Clearance time” value (CSF space: 4th Ventricle, iNPH) was 1234.4 ± 109.1 min. For the same compound, the “Enhancement coefficient (SU/min)” value (CSF space: 4th Ventricle, iNPH) was 5.6 SU/min, the “Max increase (SU)” value (CSF space: 4th Ventricle, iNPH) was 386.5 ± 138.2^a SU and the “Max reduction (SU)” value (CSF space: 4th Ventricle, iNPH) was −231.6 ± 128.1 SU. The “Time to peak” value (CSF space: 4th Ventricle, iNPH) was 286.7 ± 322.9 min, the “Clearance coefficient (SU/min)” value [12] was −0.28 ± 0.08 SU/min and the “Clearance time” value [12] was 1294.4 ± 154.5 min. For the same compound, the “Enhancement coefficient (SU/min)” value [12] was 17.7 SU/min, the “Max increase (SU)” value [12] was 426.0 ± 123.0 SU and the “Max reduction (SU)” value [12] was −358.1 ± 117.7 SU. The “Time to peak” value [12] was 129.4 ± 156.7 min, the “Clearance coefficient (SU/min)” value [13] was −0.16 ± 0.07^b SU/min and the “Clearance time” value [13] was 1264.3 ± 116.1 min. The “Enhancement coefficient (SU/min)” value [13] was 5.9 SU/min, the “Max increase (SU)” value [13] was 398.3 ± 108.0 SU and the “Max reduction (SU)” value [13] was −206.7 ± 90.8^b SU. The “Time to peak” value [13] was 174.5 ± 94.2 min, the “Clearance coefficient (SU/min)” value [14] was −0.07 ± 0.01 SU/min and the “Clearance time” value [14] was 1098.0 ± 12.5 min. The “Enhancement coefficient (SU/min)” value [14] was 0.13 SU/min, the “Max increase (SU)” value [14] was 42.5 ± 51.9 SU and the “Max reduction (SU)” value [14] was −72.3 ± 11.9 SU. The “Time to peak” value [14] was 402.6 ± 446.1 min.
